{
  "source": "patent US5087639A",
  "about": "“Preventing CNS toxicity of acivicin when used with four large neutral amino acids” (The Upjohn Company, priority 1988, dated 1992)",
  "key": {"cancer patients [1]": {"test_system": "cancer patients", "conditions": "clinical trials conducted to date; cited from earlier work"}, "Acivicin-Treated Cats": {"test_system": "Acivicin-Treated Cats", "assay": "Incidence of toxic symptoms (mydriasis, vomiting, sedation, ataxia) in acivicin-treated cats with concomitant infusion"}, "cancer patients [2]": {"test_system": "cancer patients", "conditions": "cited from earlier work"}, "[3]": {"assay": "Plasma pharmacokinetics of acivicin in cats with concomitant infusion", "conditions": "cat, in vivo, ip, 60 mg/kg, mean ± s.d.; for Vd/F: read-out: Varea", "protocol": "Blood was sampled through the blood sampling cannula at -4.0, 0, +4, +6, +9, +12, +18, +24 and +30 hours relative to the acivicin dose, for determination of acivicin concentration by microbiological assay."}, "tumor cell": {"test_system": "tumor cell", "conditions": "laboratory data; cited from earlier work"}, "[4]": {"conditions": "acivicin 60 mg/kg i.p. plus infusion of the named solution, label Acivicin = saline infusion, affected/treated cats"}},
  "note": "Like-named read-outs stand apart in the source and are kept apart here.",
  "data": [
    {"smiles": "N[C@H](C(=O)O)[C@@H]1CC(Cl)=NO1", "note": "[Acivicin, (αS,5S)-α-amino-3-chloro-2-isoxazoline-5-acetic acid]", "values": [
      {"measurement": "efficacy in clinical trials", "setting": "cancer patients [1]", "value": "marginal"},
      {"measurement": "incidence of ataxia", "setting": "Acivicin-Treated Cats; [4]", "value": "4/4"},
      {"measurement": "incidence of mydriasis", "setting": "Acivicin-Treated Cats; [4]", "value": "4/4"},
      {"measurement": "incidence of sedation", "setting": "Acivicin-Treated Cats; [4]", "value": "4/4"},
      {"measurement": "incidence of vomiting", "setting": "Acivicin-Treated Cats; [4]", "value": "1/4"},
      {"measurement": "ataxia and sedation (in words)", "setting": "Acivicin-Treated Cats; acivicin-treated cats, label Acivicin = saline-treated", "value": "both ataxic sedated"},
      {"measurement": "CNS effects in humans", "setting": "cancer patients [2]; dose-limiting", "value": "reversible, dose-limiting CNS effects such as sedation, ataxia, personality changes and hallucinations"},
      {"measurement": "dose-limiting toxicity", "setting": "cancer patients [2]; previous Phase I and II trials", "value": "neurotoxicity which is dose-dependent and reversible"},
      {"measurement": "CL/F", "setting": "[3]; Aminosyn infusion, n=2", "value": 1.83, "unit": "mL/min/kg"},
      {"measurement": "half-life", "setting": "[3]; Aminosyn infusion, n=2", "value": "4.3 ± 0.7", "unit": "h"},
      {"measurement": "k el", "setting": "[3]; Aminosyn infusion, n=2", "value": "4.44e-05", "unit": "s⁻¹"},
      {"measurement": "Vd/F", "setting": "[3]; Aminosyn infusion, n=2", "value": "0.684 ± 0.064", "unit": "L/kg"},
      {"measurement": "CL/F", "setting": "[3]; LNAA infusion, n=3", "value": 1.05, "unit": "mL/min/kg"},
      {"measurement": "half-life", "setting": "[3]; LNAA infusion, n=3", "value": "8.3 ± 0.8", "unit": "h"},
      {"measurement": "k el", "setting": "[3]; LNAA infusion, n=3", "value": "2.33e-05", "unit": "s⁻¹"},
      {"measurement": "Vd/F", "setting": "[3]; LNAA infusion, n=3", "value": "0.75 ± 0.081", "unit": "L/kg"},
      {"measurement": "CL/F", "setting": "[3]; OAA infusion, n=3", "value": 1.28, "unit": "mL/min/kg"},
      {"measurement": "half-life", "setting": "[3]; OAA infusion, n=3", "value": "7.4 ± 1.06", "unit": "h"},
      {"measurement": "k el", "setting": "[3]; OAA infusion, n=3", "value": "2.64e-05", "unit": "s⁻¹"},
      {"measurement": "Vd/F", "setting": "[3]; OAA infusion, n=3", "value": "0.814 ± 0.061", "unit": "L/kg"},
      {"measurement": "CL/F", "setting": "[3]; Saline infusion, n=3", "value": 1.28, "unit": "mL/min/kg"},
      {"measurement": "half-life", "setting": "[3]; Saline infusion, n=3", "value": "8.4 ± 2.5", "unit": "h"},
      {"measurement": "k el", "setting": "[3]; Saline infusion, n=3", "value": "2.42e-05", "unit": "s⁻¹"},
      {"measurement": "Vd/F", "setting": "[3]; Saline infusion, n=3", "value": "0.893 ± 0.143", "unit": "L/kg"},
      {"measurement": "CL/F", "setting": "[3]; second line \"aminosyn\", n=4", "value": 0.918, "unit": "mL/min/kg"},
      {"measurement": "half-life", "setting": "[3]; second line \"aminosyn\", n=4", "value": "8.18 ± 1.36", "unit": "h"},
      {"measurement": "k el", "setting": "[3]; second line \"aminosyn\", n=4", "value": "2.58e-05", "unit": "s⁻¹"},
      {"measurement": "Vd/F", "setting": "[3]; second line \"aminosyn\", n=4", "value": "0.625 ± 0.0123", "unit": "L/kg"},
      {"measurement": "CL/F", "setting": "[3]; second line \"saline\", n=4", "value": 1.85, "unit": "mL/min/kg"},
      {"measurement": "half-life", "setting": "[3]; second line \"saline\", n=4", "value": "2.6 ± 0.41", "unit": "h"},
      {"measurement": "k el", "setting": "[3]; second line \"saline\", n=4", "value": "7.64e-05", "unit": "s⁻¹"},
      {"measurement": "Vd/F", "setting": "[3]; second line \"saline\", n=4", "value": "0.408 ± 0.0331", "unit": "L/kg"},
      {"measurement": "dependence of cytotoxicity on tumor cell exposure concentration and duration", "setting": "tumor cell", "value": "strong dependence"}
    ]}
  ]
}
